The results in this text go back to BindingDB's records for doi:10.1038/sj.mp.4000336 (University of Toronto, 1998).

Structures are written as SMILES.

Sequence of 5-hydroxytryptamine receptor 2A (P14842 whole entry): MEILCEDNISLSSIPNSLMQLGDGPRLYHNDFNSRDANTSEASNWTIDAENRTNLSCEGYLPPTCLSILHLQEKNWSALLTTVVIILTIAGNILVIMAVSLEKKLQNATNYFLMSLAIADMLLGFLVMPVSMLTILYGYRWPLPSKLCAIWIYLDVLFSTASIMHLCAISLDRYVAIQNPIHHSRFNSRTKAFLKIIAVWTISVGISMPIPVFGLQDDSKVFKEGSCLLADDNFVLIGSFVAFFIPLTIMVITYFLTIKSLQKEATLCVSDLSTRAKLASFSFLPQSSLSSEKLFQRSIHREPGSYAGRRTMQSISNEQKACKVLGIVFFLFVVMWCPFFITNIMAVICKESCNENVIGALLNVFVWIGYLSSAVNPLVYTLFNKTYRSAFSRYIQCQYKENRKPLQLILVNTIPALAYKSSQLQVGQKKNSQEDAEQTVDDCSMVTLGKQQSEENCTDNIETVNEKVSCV

This experiment concerns the target 5-hydroxytryptamine receptor 2A (Rattus norvegicus, UniProt P14842).
In turn, `CCN1CCC[C@H]1CNC(=O)c1c(OC)ccc(Br)c1OC` came in with an inhibitory constant (Ki) of 5.2 µM. The value for `CCN1CCC[C@H]1CNC(=O)c1c(O)c(Cl)cc(Cl)c1OC` [3,5-Dichloro-N-(1-ethyl-pyrrolidin-2-ylmethyl)-2-hydroxy-6-methoxy-benzamide (raclopride)] was 4 µM. Regarding `O=C1C2CCCCC2C(=O)N1CCCCN1CCN(c2nsc3ccccc23)CC1` (stereo not drawn) [NSC_115368], the Ki was 0.0013 µM.
